From ChEMBL document CHEMBL1151572, “Non-glycosidic/non-aminoalkyl-substituted indolocarbazoles as inhibitors of protein kinase C” (Bioorg Med Chem Lett, 1993) come the findings set out here.

Experiment [1] deals with cAMP-dependent protein kinase catalytic subunit alpha (Bos taurus, UniProt P00517). Briefly: In vitro for inhibitory activity against cAMP-dependent protein kinase from bovine heart (A-kinase).
Experiment [2] has as its target Protein kinase C (PKC). Briefly: In vitro for inhibitory activity against protein kinase C from rat brain.
Experiment [3] has as its target Myosin light chain kinase, smooth muscle (Gallus gallus, UniProt P11799). Briefly: In vitro for inhibitory activity against myosin light-chain kinase from chicken gizzard (M-kinase).
The subject of experiment [4] is Splenocyte. Briefly: In vitro for inhibitory activity against tyrosine specific protein kinase from murine spleen cells (T-kinase). The experiment is classed as functional, cell-based. Conditions: Mus musculus.
Experiment [5] deals with T1, cGMP-dependent protein kinase 1 (Bos taurus, UniProt P00516).
T1 sequence (P00516 whole entry): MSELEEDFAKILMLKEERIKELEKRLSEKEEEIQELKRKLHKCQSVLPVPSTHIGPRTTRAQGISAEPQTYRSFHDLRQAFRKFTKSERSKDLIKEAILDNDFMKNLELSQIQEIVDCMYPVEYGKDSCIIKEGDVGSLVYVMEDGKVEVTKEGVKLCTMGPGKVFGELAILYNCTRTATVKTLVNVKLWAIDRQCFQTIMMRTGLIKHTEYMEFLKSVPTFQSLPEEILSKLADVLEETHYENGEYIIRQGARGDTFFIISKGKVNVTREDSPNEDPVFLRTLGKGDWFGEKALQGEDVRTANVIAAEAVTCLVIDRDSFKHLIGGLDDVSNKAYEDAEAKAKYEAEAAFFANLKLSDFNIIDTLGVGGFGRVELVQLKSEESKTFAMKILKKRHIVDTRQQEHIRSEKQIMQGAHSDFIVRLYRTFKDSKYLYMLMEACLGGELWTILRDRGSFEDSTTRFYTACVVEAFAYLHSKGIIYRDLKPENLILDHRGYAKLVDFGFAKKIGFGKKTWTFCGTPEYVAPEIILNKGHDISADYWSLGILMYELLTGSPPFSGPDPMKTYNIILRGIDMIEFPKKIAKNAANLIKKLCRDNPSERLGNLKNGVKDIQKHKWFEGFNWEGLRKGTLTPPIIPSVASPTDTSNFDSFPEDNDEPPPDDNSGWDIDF
Kind of experiment: In vitro for inhibitory activity against cGMP-dependent protein kinase from bovine lung (G-kinase).

Myosin light chain kinase, smooth muscle, sequence (P11799 whole entry): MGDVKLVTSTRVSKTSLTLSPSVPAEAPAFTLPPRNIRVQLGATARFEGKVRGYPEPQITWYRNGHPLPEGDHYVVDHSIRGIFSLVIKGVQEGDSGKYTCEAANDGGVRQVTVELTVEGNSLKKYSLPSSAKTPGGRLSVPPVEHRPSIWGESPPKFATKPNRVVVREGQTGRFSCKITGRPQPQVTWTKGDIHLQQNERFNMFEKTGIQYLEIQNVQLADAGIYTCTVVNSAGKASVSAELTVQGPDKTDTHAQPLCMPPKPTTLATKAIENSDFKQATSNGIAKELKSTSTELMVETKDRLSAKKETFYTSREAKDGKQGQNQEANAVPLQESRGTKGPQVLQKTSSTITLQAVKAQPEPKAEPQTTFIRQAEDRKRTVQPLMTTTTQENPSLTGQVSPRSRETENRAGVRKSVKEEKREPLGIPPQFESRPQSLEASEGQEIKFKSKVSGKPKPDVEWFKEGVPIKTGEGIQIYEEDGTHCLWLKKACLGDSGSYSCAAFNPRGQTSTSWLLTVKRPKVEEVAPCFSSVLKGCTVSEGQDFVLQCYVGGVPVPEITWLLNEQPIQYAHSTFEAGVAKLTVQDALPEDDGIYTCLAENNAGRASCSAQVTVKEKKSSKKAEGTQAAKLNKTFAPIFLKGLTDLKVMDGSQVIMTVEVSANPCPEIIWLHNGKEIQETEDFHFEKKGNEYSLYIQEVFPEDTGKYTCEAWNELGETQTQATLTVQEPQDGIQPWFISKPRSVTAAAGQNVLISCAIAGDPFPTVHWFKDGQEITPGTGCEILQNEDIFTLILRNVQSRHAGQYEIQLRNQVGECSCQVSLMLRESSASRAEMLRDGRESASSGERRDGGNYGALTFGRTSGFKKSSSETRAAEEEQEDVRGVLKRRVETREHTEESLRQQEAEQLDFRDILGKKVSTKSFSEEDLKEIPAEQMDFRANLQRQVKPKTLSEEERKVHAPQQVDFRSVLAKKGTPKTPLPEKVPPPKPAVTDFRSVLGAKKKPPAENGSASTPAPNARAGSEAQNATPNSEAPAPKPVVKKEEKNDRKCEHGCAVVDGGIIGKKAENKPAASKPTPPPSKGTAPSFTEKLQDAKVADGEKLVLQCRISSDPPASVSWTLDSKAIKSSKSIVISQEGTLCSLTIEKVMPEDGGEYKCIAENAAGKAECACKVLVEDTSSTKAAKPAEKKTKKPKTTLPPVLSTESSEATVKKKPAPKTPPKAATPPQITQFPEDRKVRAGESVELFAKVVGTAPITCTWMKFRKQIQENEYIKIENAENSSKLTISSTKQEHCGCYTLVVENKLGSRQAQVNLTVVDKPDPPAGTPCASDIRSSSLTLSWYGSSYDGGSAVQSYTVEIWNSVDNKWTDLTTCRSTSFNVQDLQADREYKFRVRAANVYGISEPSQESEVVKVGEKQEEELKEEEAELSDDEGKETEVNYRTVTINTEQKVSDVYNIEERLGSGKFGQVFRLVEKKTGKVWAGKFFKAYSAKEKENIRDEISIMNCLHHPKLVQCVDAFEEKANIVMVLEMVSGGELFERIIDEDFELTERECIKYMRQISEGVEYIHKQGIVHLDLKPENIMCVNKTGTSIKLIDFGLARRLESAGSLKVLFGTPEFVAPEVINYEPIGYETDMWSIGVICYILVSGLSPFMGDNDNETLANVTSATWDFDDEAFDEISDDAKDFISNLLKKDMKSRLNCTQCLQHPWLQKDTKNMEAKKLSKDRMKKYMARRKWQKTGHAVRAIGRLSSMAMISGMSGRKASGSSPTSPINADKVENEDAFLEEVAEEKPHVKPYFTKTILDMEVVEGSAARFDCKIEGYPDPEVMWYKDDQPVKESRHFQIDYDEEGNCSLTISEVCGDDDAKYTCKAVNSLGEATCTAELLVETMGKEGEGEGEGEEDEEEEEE

Take `CCn1c2ccccc2c2c3c(c4c5ccccc5n(CCC#N)c4c21)CNC3=O`: the IC50 in experiment [1] is 6300 nM; in experiment [2], 27 nM; in experiment [3] it was 1600 nM; in experiment [4], greater than 10000 nM; in experiment [5], 1300 nM.

In experiment [4], `CN[C@@H]1C[C@H]2O[C@@](C)([C@@H]1OC)n1c3ccccc3c3c4c(c5c6ccccc6n2c5c31)C(=O)NC4` [STAUROSPORINE] had an IC50 of 400 nM.

With `CCCn1c2ccccc2c2c3c(c4c5ccccc5n(CCC)c4c21)C(=O)NC3`, the IC50 in experiment [2] is 8100 nM.

With `CCCn1c2ccccc2c2c3c(c4c5ccccc5n(C)c4c21)C(=O)NC3`, the IC50 was greater than 30000 nM in experiment [1]; 100 nM in experiment [2]; 11000 nM in experiment [3]; greater than 10000 nM in experiment [4]; 5100 nM in experiment [5].

On to `N#CCCn1c2ccccc2c2c3c(c4c5ccccc5[nH]c4c21)C(=O)NC3`, for which the IC50 in experiment [1] is greater than 10000 nM; in experiment [2], 75 nM; in experiment [3], 500 nM; in experiment [5], 320 nM.

Turning to `Cn1c2ccccc2c2c3c(c4c5ccccc5n(CCC#N)c4c21)CNC3=O` [GO-6976], the IC50 is greater than 100000 nM in experiment [1] and greater than 10000 nM in experiment [4].

As for `Cn1c2ccccc2c2c3c(c4c5ccccc5[nH]c4c21)C(=O)NC3`, the IC50 is greater than 10000 nM in experiment [1], 520 nM in experiment [2], 1100 nM in experiment [3] and 400 nM in experiment [5].

`Cn1c2ccccc2c2c3c(c4c5ccccc5n(C)c4c21)C(=O)NC3`: the IC50 in experiment [1] is greater than 100000 nM; in experiment [2] it was 450 nM; in experiment [3] it was 5800 nM; in experiment [5], 5500 nM.

Consider `Cn1c2ccccc2c2c3c(c4c5ccccc5n(CC(F)F)c4c21)CNC3=O`, for which the IC50 in experiment [1] was 2400 nM; in experiment [2], 32 nM; in experiment [3] it was 440 nM; in experiment [4], greater than 10000 nM; in experiment [5], 710 nM.

For `NC(=O)CCn1c2ccccc2c2c3c(c4c5ccccc5[nH]c4c21)C(=O)NC3`, the IC50 in experiment [2] was determined as 110 nM; in experiment [3] it was 82 nM.

`CN1Cc2c(c3c4ccccc4n(C)c3c3c2c2ccccc2n3CCC#N)C1=O`: the IC50 is greater than 30000 nM in experiment [1]; greater than 30000 nM in experiment [2]; greater than 10000 nM in experiment [3]; greater than 10000 nM in experiment [4]; greater than 30000 nM in experiment [5].

`CC(C)=CCn1c2ccccc2c2c3c(c4c5ccccc5[nH]c4c21)C(=O)NC3` gave an IC50 in experiment [2] of 3500 nM.

As to `O=C1NCc2c1c1c3ccccc3[nH]c1c1[nH]c3ccccc3c21` [STAUROSPORINONE], the IC50 is greater than 10000 nM in experiment [1], 680 nM in experiment [2], 2800 nM in experiment [3] and 650 nM in experiment [5].

Consider `Cn1c2ccccc2c2c3c(c4c5ccccc5n(CCCN=[N+]=[N-])c4c21)CNC3=O`, for which the IC50 in experiment [2] worked out at 25 nM; in experiment [3], 450 nM.

In the case of `O=C(O)CCn1c2ccccc2c2c3c(c4c5ccccc5[nH]c4c21)C(=O)NC3`, the IC50 was greater than 100000 nM in experiment [1], 590 nM in experiment [2], 1800 nM in experiment [3] and 21000 nM in experiment [5].

Consider `O=C1NCc2c1c1c3ccccc3[nH]c1c1c2c2ccccc2n1CC(O)CO` (configuration not stated), for which the IC50 in experiment [1] was determined as 4800 nM; in experiment [2], 99 nM; in experiment [3], 390 nM; in experiment [5], 280 nM.

`CCn1c2ccccc2c2c3c(c4c5ccccc5n(CC)c4c21)C(=O)NC3`: the IC50 in experiment [1] is greater than 10000 nM; in experiment [2] it was 200 nM; in experiment [3], 1200 nM; in experiment [5], 700 nM.
